Assay results as given in patent US11497752B2, “Compounds and uses thereof” (Foghorn Therapeutics Inc., priority 2018, dated 2022).

What was measured:
[1] = system: uveal melanoma and hematologic cancer cell lines; conditions: FIG. 1; 0 to 10 micromolar; uveal melanoma and hematologic cancer cell lines vs other tested cell lines
[2] = system: Uveal melanoma cell lines, 92-1 or MP41; test: Comparison with clinical PKC and MEK inhibitors in uveal melanoma cell lines (Cell-titer glo, 3 days); assay type: cell-based; conditions: FIG. 2, vs LXS196 and Selumetinib
BRM = BRM (Homo sapiens, UniProt P51531); test: ATPase catalytic activity of BRM (ADP-Glo in vitro biochemical assay); conditions: for BRM Max % Inhibition: Table 6
BRG-1 = BRG-1 (Homo sapiens, UniProt P51532); test: ATPase catalytic activity of BRG-1 (ADP-Glo in vitro biochemical assay); conditions: for BRG1 Max % Inhibition: Table 6
BRG-1, sequence (P51532 whole entry): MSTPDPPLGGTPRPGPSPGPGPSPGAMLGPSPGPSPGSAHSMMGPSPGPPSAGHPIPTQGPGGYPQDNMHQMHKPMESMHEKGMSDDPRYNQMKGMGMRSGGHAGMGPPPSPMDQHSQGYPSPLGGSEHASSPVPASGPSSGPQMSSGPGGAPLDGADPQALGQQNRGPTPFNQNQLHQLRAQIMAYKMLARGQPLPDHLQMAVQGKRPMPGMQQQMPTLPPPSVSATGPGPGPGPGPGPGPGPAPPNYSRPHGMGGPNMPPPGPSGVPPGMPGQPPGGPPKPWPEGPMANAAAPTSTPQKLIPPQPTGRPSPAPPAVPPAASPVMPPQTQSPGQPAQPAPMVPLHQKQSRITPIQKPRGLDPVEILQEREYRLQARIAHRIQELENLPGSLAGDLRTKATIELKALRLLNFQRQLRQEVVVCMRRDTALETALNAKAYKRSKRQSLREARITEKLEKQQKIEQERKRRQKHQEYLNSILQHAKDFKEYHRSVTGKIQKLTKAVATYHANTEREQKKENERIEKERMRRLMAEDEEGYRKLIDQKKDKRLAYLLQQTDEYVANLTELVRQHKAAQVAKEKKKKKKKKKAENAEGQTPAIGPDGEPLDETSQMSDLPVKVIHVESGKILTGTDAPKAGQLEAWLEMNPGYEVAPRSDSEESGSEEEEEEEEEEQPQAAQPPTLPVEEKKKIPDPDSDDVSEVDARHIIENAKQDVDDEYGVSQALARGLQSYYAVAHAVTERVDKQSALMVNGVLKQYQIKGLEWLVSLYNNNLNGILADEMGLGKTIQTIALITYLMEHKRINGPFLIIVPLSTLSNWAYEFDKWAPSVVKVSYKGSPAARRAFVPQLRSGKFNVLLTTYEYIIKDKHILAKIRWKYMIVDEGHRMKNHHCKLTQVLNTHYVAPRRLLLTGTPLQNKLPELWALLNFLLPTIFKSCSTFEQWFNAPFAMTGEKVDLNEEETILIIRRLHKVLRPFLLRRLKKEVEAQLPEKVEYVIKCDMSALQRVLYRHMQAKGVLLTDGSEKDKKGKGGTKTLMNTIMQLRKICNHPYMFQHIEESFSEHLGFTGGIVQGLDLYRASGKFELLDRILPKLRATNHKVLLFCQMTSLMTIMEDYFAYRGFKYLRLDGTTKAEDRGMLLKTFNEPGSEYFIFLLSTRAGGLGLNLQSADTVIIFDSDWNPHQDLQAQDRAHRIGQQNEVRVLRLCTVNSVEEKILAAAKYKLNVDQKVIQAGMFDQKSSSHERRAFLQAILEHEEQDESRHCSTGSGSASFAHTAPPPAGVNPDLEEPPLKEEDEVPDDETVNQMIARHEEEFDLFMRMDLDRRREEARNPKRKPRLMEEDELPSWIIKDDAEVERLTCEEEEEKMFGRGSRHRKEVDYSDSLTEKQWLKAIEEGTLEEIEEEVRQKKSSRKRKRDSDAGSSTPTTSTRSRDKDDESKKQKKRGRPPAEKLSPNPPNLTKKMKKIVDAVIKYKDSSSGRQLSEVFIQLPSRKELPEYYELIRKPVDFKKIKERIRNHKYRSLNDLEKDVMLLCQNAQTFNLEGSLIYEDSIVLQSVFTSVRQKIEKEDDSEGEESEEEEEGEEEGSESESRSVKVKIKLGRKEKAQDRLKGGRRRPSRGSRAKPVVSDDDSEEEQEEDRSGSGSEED

BRM, sequence (P51531 whole entry): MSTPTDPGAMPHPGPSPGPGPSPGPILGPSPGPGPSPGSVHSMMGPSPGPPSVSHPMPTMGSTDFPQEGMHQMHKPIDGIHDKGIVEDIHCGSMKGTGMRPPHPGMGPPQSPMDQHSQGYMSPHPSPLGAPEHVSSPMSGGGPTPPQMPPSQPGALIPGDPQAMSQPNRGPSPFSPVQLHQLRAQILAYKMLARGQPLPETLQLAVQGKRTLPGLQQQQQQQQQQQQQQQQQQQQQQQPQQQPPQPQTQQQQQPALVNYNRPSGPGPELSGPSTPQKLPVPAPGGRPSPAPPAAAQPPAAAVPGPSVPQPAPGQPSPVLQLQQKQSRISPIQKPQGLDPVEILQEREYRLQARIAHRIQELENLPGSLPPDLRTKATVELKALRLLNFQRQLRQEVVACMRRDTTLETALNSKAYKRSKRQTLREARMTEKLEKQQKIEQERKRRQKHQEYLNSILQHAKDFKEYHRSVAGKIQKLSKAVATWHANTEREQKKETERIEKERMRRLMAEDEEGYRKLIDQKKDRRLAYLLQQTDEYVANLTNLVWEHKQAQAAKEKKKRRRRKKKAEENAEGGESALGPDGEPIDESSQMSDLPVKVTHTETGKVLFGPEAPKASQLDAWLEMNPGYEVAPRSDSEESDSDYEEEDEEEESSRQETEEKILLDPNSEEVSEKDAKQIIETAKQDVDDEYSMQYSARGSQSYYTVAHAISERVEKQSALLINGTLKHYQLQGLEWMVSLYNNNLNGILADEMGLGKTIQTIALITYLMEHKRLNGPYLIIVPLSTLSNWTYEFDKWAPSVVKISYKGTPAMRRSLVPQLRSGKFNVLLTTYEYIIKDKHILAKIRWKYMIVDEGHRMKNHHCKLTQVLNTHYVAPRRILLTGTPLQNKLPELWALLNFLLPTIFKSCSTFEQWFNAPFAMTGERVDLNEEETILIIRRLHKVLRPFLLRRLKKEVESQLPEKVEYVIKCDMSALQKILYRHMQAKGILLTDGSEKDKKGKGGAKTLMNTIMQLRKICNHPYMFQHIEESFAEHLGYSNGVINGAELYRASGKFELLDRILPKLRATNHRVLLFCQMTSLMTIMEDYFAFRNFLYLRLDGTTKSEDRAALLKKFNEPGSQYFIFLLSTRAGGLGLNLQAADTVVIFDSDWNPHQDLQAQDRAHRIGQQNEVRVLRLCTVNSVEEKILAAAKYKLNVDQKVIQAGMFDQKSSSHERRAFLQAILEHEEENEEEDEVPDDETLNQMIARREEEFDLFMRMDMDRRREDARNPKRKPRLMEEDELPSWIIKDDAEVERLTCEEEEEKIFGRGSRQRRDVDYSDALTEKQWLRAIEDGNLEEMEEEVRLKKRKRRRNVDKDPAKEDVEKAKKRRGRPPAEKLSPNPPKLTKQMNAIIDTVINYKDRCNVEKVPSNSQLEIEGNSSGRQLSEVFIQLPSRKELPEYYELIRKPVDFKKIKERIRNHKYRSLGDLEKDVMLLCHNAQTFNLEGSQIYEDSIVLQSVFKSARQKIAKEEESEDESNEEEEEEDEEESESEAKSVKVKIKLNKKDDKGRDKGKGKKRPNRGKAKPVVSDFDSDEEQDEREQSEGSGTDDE

IC50 (BRM)	BRM Max % Inhibition (BRM)	IC50 (BRG-1)	BRG1 Max % Inhibition (BRG-1)	Compound	sensitivity of cell lines to growth inhibition (GI50) [1]	growth inhibition of uveal melanoma cells ([2]; 0 to 10 micromolar, 3 days)	onset of inhibition [2]
< 100 nM	>95%	< 100 nM	>90%	Nc1ccc(C(=O)NCC(=O)Nc2nc(-c3cccc(-c4ccnc(CC(=O)O)c4)c3)cs2)cc1 [Compound 224, [2-[4-[3-[2-[[2-[(4-aminobenzoyl)amino]acetyl]amino]thiazol-4-yl]phenyl]-2-pyridyl]acetyl]oxysodium]	–	–	–
100 to 1000 nM	>95%	100 to 1000 nM	>95%	CC(C)(O)Cn1ccc(-c2cccc(-c3csc(NC(=O)CNC(=O)c4ccc(N)cc4)n3)c2)n1 [Compound 229, 4-amino-N-[2-[[4-[3-[1-(2-hydroxy-2-methyl-propyl)pyrazol-3-yl]phenyl]thiazol-2-yl]amino]-2-oxo-ethyl]benzamide]	–	–	–
100 to 1000 nM	>90%	100 to 1000 nM	>80%	CN(C)CC[C@H](NC(=O)c1ccc(N)cc1)C(=O)Nc1nc(-c2cccc(-c3ccncc3)c2)cs1 [Compound 233, (S)-4-amino-N-(4-(dimethylamino)-1-oxo-1-((4-(3-(pyridin-4-yl)phenyl)thiazol-2-yl)amino)butan-2-yl)benzamide]	–	–	–
100 to 1000 nM	>90%	100 to 1000 nM	>90%	CSCC[C@H](NC(=O)c1ccc(N)cc1)C(=O)Nc1nc(-c2cccc(-c3cccc(CN)c3)c2)cs1 [Compound 237, 4-amino-N-[(1S)-1-[[4-[3-[3-(aminomethyl)phenyl]phenyl]thiazol-2-yl]carbamoyl]-3-methylsulfanyl-propyl]benzamide]	–	–	–
100 to 1000 nM	>90%	100 to 1000 nM	>95%	CO[C@H]1CCCN(c2cccc(-c3csc(NC(=O)CNC(=O)c4ccc(N)cc4)n3)c2)C1 [Compound 238, 4-amino-N-[2-[[4-[3-[(3S)-3-methoxy-1-piperidyl]phenyl]thiazol-2-yl]amino]-2-oxo-ethyl]benzamide]	–	–	–
100 to 1000 nM	>90%	100 to 1000 nM	>80%	Nc1ccc(C(=O)NCC(=O)Nc2nc(-c3cccc(C4CCCCO4)c3)cs2)cc1 (stereo not drawn) [Compound 239, 4-amino-N-[2-oxo-2-[[4-(3-tetrahydropyran-2-ylphenyl)thiazol-2-yl]amino]ethyl]benzamide]	–	–	–
100 to 1000 nM	>90%	100 to 1000 nM	>90%	CC(C)(N)Cn1ccc(-c2cccc(-c3csc(NC(=O)CNC(=O)c4ccc(N)cc4)n3)c2)n1 [Compound 241, 4-amino-N-[2-[[4-[3-[1-(2-amino-2-methyl-propyl)pyrazol-3-yl]phenyl]thiazol-2-yl]amino]-2-oxo-ethyl]benzamide]	–	–	–

The remaining lines, values behind:

Compound	IC50 (BRM)	BRM Max % Inhibition (BRM)	IC50 (BRG-1)	BRG1 Max % Inhibition (BRG-1)	sensitivity of cell lines to growth inhibition (GI50) [1]	growth inhibition of uveal melanoma cells ([2]; 0 to 10 micromolar, 3 days)	onset of inhibition [2]
CSCC[C@H](NC(=O)c1ccc(N)cc1)C(=O)Nc1nc(-c2cccc(-c3ccncc3)c2)cs1 [Compound 87, (S)-4-amino-N-(4-(methylthio)-1-oxo-1-((4-(3-(pyridin-4-yl)phenyl)thiazol-2-yl)amino)butan-2-yl)benzamide]	–	–	–	–	more sensitive to BRG1/BRM inhibition than the other tested cell lines	comparable growth inhibition of uveal melanoma cells as the clinical PKC and MEK inhibitors	faster onset of inhibition than the clinical PKC and MEK inhibitors
CNC(=O)C1(c2cc(-c3cccc(-c4csc(NC(=O)CNC(=O)c5ccc(N)cc5)n4)c3)ccn2)CC1 [Compound 223, 4-amino-N-[2-[[4-[3-[2-[1-(methylcarbamoyl)cyclopropyl]-4-pyridyl]phenyl]thiazol-2-yl]amino]-2-oxo-ethyl]benzamide]	< 100 nM	>95%	< 100 nM	>90%	–	–	–
CN(C)C1CCCN(c2cc(-c3cccc(-c4csc(NC(=O)CNC(=O)c5ccc(N)cc5)n4)c3)ccn2)C1 (stereo not drawn) [Compound 225, 4-amino-N-[2-[[4-[3-[2-[3-(dimethylamino)-1-piperidyl]-4-pyridyl]phenyl]thiazol-2-yl]amino]-2-oxo-ethyl]benzamide]	100 to 1000 nM	>80%	100 to 1000 nM	>90%	–	–	–
CNC(=O)C(C)(C)c1cc(-c2cccc(-c3csc(NC(=O)CNC(=O)c4ccc(N)cc4)n3)c2)ccn1 [Compound 226, 4-amino-N-[2-[[4-[3-[2-[1,1-dimethyl-2-(methylamino)-2-oxo-ethyl]-4-pyridyl]phenyl]thiazol-2-yl]amino]-2-oxo-ethyl]benzamide]	< 100 nM	>95%	< 100 nM	>95%	–	–	–
Nc1ccc(C(=O)NCC(=O)Nc2nc(-c3cccc(-c4ccncn4)c3)cs2)cc1 [Compound 227, 4-amino-N-[2-oxo-2-[[4-(3-pyrimidin-4-ylphenyl)thiazol-2-yl]amino]ethyl]benzamide]	< 100 nM	>95%	< 100 nM	>95%	–	–	–
Cn1ncc2ccc(-c3csc(NC(=O)CNC(=O)c4ccc(N)cc4)n3)cc21 [Compound 228, 4-amino-N-[2-[[4-(1-methylindazol-6-yl)thiazol-2-yl]amino]-2-oxo-ethyl]benzamide]	100 to 1000 nM	>90%	100 to 1000 nM	>90%	–	–	–
Nc1ccc(C(=O)NCC(=O)Nc2nc(-c3cccc(COC4CCOCC4)c3)cs2)cc1 [Compound 230, 4-amino-N-[2-oxo-2-[[4-[3-(tetrahydropyran-4-yloxymethyl)phenyl]thiazol-2-yl]amino]ethyl]benzamide]	100 to 1000 nM	>95%	100 to 1000 nM	>90%	–	–	–
COC(C)(C)Cn1ccc(-c2cccc(-c3csc(NC(=O)CNC(=O)c4ccc(N)cc4)n3)c2)n1 [Compound 232, 4-amino-N-[2-[[4-[3-[1-(2-methoxy-2-methyl-propyl)pyrazol-3-yl]phenyl]thiazol-2-yl]amino]-2-oxo-ethyl]benzamide]	100 to 1000 nM	>80%	100 to 1000 nM	>80%	–	–	–
Nc1ccc(C(=O)NCC(=O)Nc2nc(-c3cccc(N4CCC[C@@H](O)C4)c3)cs2)cc1 [Compound 234, 4-amino-N-[2-[[4-[3-[(3R)-3-hydroxy-1-piperidyl]phenyl]thiazol-2-yl]amino]-2-oxo-ethyl]benzamide]	100 to 1000 nM	>90%	100 to 1000 nM	>90%	–	–	–
CC(OC1CCOCC1)c1cccc(-c2csc(NC(=O)CNC(=O)c3ccc(N)cc3)n2)c1 (stereo not drawn) [Compound 235, 4-amino-N-[2-oxo-2-[[4-[3-(1-tetrahydropyran-4-yloxyethyl)phenyl]thiazol-2-yl]amino]ethyl]benzamide]	100 to 1000 nM	>90%	100 to 1000 nM	>70%	–	–	–
Nc1ccc(C(=O)NCC(=O)Nc2nc(-c3cccc(N4CCC[C@H](O)C4)c3)cs2)cc1 [Compound 236, 4-amino-N-[2-[[4-[3-[(3S)-3-hydroxy-1-piperidyl]phenyl]thiazol-2-yl]amino]-2-oxo-ethyl]benzamide]	100 to 1000 nM	>90%	100 to 1000 nM	>90%	–	–	–
Nc1ccc(C(=O)NCC(=O)Nc2nc(-c3ccc4cncnc4c3)cs2)cc1 [Compound 240, 4-amino-N-[2-oxo-2-[(4-quinazolin-7-ylthiazol-2-yl)amino]ethyl]benzamide]	100 to 1000 nM	>80%	100 to 1000 nM	>80%	–	–	–
